Legend:
bean leaf = test: Toxicity to host plant leaves after injection
Procedure: Furthermore, to study whether the optimized NaAc recipe is toxic to a host plant, aqueous solutions of 0.1 mM FeAc, 100 mM NaAc, and the optimized recipe (1 mM NaAc and 0.1 mM FeAc) were respectively injected into tomato and bean leaves and inoculated for 6 days.

wild-type P. syringae [1] = details: 10 mM NaAc, 6 days after inoculation, 2×10^4 CFU/ml
P. syringae [2] = test: Toxicity to P. syringae liquid culture (CFU count); details: liquid culture treated 2 hours
Procedure: To study whether the optimized NaAc recipe is toxic to P. syringae, a P. syringae liquid culture was treated with 0.1 mM FeAc, 100 mM NaAc, and the optimized recipe (1 mM NaAc and 0.1 mM FeAc) respectively for 2 hours. The treated and control (untreated) cultures were then diluted for counting bacterial CFUs.

wild-type P. syringae [3] = tested on: wild-type P. syringae
[4] = tested on: wild-type P. syringae pv. tomato; details: 6 day post inoculation
Procedure: To study the effect of concentration of NaAc on inhibiting growth of P. syringae, 2×10^4 CFU/ml of wild-type P. syringae pv. tomato bacteria were injected into the tomato leaves. Then, the inoculated leaves were sprayed with water and 0.1-100 mM NaAc. Three 1 cm^2 leaf disks at 6 day post inoculation were homogenated and diluted in water to count bacterial CFUs.

P. syringae [5] = details: conventional agent, comparison; cited from earlier work
hrpL = test: hrpL-lux activity (hrpL expression) in wild-type P. syringae; type: cell-based; details: 1 mM of each salt
Procedure: To study the inhibitory effect of different acetate salts to inhibit P. syringae, 1 mM of 12 acetate salts was tested on the expression of hrpL, namely on hrpL-lux activities, in the wild-type P. syringae. The 12 acetate salts included acetate salts of lithium (Li), potassium (K), magnesium (Mg), sodium (Na), calcium (Ca), manganese (Mn), aluminium (Al), nickel (Ni), acetic acid (denoted as HAc), copper (Cu), ammonium (NH4), and iron (Fe).

CC(=O)[O-].[Na+] [NaAc, sodium acetate]
toxicity to host plant leaf (bean leaf; injected into leaf, 6 days): not toxic | toxicity or resistance on plant (bean leaf; plant): no toxicity or resistance on plant | bacterial pathogenicity (disease symptoms) on bean leaf (wild-type P. syringae [1]): significantly reduced bacterial pathogenicity | toxicity to P. syringae (P. syringae [2]): not toxic | bacterial pathogenicity (disease symptoms) on tomato leaf (wild-type P. syringae [3]; 10 mM NaAc, 6 days after inoculation, 2×10^4 CFU/ml): significantly reduced bacterial pathogenicity | concentration removing infection symptom (wild-type P. syringae [3]; host plant not named at this place): 10 mM | difference in bacterial CFU between water control and NaAc spray ([4]; tomato leaf, 0.1-100 mM spray, P<0.05): significant | best concentration for reducing bacterial growth ([4]; tomato, of concentrations from 0.1 mM to 100 mM): 100 mM

[H]/N=C(/N)N[C@H]1[C@H](O)[C@@H](O)[C@H](O[C@@H]2O[C@@H](C)[C@](O)(C=O)[C@H]2O[C@@H]2O[C@@H](CO)[C@H](O)[C@@H](O)[C@@H]2NC)[C@@H](N/C(N)=N\[H])[C@@H]1O [streptomycin]
minimum inhibitory concentration (MIC) (P. syringae [5]): 1000 µg/mL

CC(=O)[O-].CC(=O)[O-].[Fe+2] [iron acetate]
inhibitory effect on hrpL-lux activities, rank among 12 acetate salts (hrpL): best inhibitory effect

O=S(=O)([O-])[O-].[Cu+2] [copper sulfate]
minimum inhibitory concentration (MIC) (P. syringae [5]): 3000 µM

Reference: patent US20210251226A1, “METHOD AND COMPOSITION FOR INHIBITING THE GROWTH OF PSEUDOMONAS SYRINGAE ON A PLANT MATERIAL, AND KIT FOR TREATING THE SAME” (City University of Hong Kong, priority 2020, published 2021)
